The nature of series [1]: Determination of moisture contents with KF moisture meter at different time points. The class given is physicochemical. Particulars: temperature 23° C., humidity 92.5%.
The nature of series [2]: Stability of complexes at 30-80° C. The series is classed as physicochemical. An excerpt:
For R-3-hydroxybutyric acid, potassium R-3-hydroxybutyrate, mixture of R-3-hydroxybutyric acid and potassium R-3-hydroxybutyrate, and R-3-hydroxybutyric acid·potassium R-3-hydroxybutyrate complex of Example 1, […]
For 3-hydroxybutyric acid, potassium 3-hydroxybutyrate, mixture of 3-hydroxybutyric acid and potassium 3-hydroxybutyrate, and 3-hydroxybutyric acid·potassium 3-hydroxybutyrate complex of Example 7, […]
For S-3-hydroxybutyric acid, potassium S-3-hydroxybutyrate, mixture of S-3-hydroxybutyric acid and potassium S-3-hydroxybutyrate, and S-3-hydroxybutyric acid·potassium S-3-hydroxybutyrate complex of Example 13, […]
For R-3-hydroxybutyric acid, calcium R-3-hydroxybutyrate, mixture of R-3-hydroxybutyric acid and calcium R-3-hydroxybutyrate, and R-3-hydroxybutyric acid·calcium R-3-hydroxybutyrate complex of Example 19, […]
For 3-hydroxybutyric acid, calcium 3-hydroxybutyrate, mixture of 3-hydroxybutyric acid and calcium 3-hydroxybutyrate, and 3-hydroxybutyric acid·calcium 3-hydroxybutyrate complex of Example 25, […]
For S-3-hydroxybutyric acid, calcium S-3-hydroxybutyrate, mixture of S-3-hydroxybutyric acid and calcium S-3-hydroxybutyrate, and S-3-hydroxybutyric acid·calcium S-3-hydroxybutyrate complex of Example 31, […]
For R-3-hydroxybutyric acid, magnesium R-3-hydroxybutyrate, mixture of R-3-hydroxybutyric acid and magnesium R-3-hydroxybutyrate, and R-3-hydroxybutyric acid·magnesium R-3-hydroxybutyrate complex of Example 37, […]
For 3-hydroxybutyric acid, magnesium 3-hydroxybutyrate, mixture of 3-hydroxybutyric acid and magnesium 3-hydroxybutyrate, and 3-hydroxybutyric acid·magnesium 3-hydroxybutyrate complex of Example 43, […]
For S-3-hydroxybutyric acid, magnesium S-3-hydroxybutyrate, mixture of S-3-hydroxybutyric acid and magnesium S-3-hydroxybutyrate, and S-3-hydroxybutyric acid·magnesium S-3-hydroxybutyrate complex of Example 49, […]
For R-3-hydroxypentanoic acid, sodium R-3-hydroxypentanoate, mixture of R-3-hydroxypentanoic acid and sodium R-3-hydroxypentanoate, and R-3-hydroxypentanoic acid·sodium R-3-hydroxypentanoate complex of Example 55, […]
For 3-hydroxypentanoic acid, sodium 3-hydroxypentanoate, mixture of 3-hydroxypentanoic acid and sodium 3-hydroxypentanoate, and 3-hydroxypentanoic acid·sodium 3-hydroxypentanoate complex of Example 61, […]
For S-3-hydroxypentanoic acid, sodium S-3-hydroxypentanoate, mixture of S-3-hydroxypentanoic acid and sodium S-3-hydroxypentanoate, and S-3-hydroxypentanoic acid·sodium S-3-hydroxypentanoate complex of Example 67, […]

From US20260184662A1, “COMPOSITE OF ACID AND SALT, AND PREPARATION METHOD THEREFOR” (NANJING NUTRABUILDING BIO-TECH CO., LTD., priority 2022, published 2026) come the findings set out here.

Like-named read-outs stand apart in the source and are kept apart here.

As for `CC[C@H](O)CC(=O)O.CC[C@H](O)CC(=O)[O-].[Na+]` [S-3-hydroxypentanoic acid·sodium S-3-hydroxypentanoate], the “moisture content (%)” value worked out at 0.59% in series [1] (30 min); 1.15% in series [1] (1 h); 1.54% in series [1] (2 h); 2.73% in series [1] (4 h); 3.99% in series [1] (6 h); 4.43% in series [1] (7 h). The “moisture content (%)” value is 7.03% in series [1] (11 h) and 14.11% in series [1] (22 h). Moreover, the Stability result in series [2] was “unchanged”.

`CCC(O)CC(=O)[O-].[Na+]` (stereo not shown) [Sodium 3-hydroxypentanoate, sodium 3-hydroxypentanoate]: the “moisture content (%)” value in series [1] (30 min) is reported as 0.96%; in series [1] (1 h), 1.83%; in series [1] (2 h), 3.02%; in series [1] (4 h), 4.46%; in series [1] (6 h), 6.28%; in series [1] (7 h), 6.96%. For the same molecule, the “moisture content (%)” value in series [1] (11 h) is recorded as 10.72%; in series [1] (22 h) it was 20.79%. Also, the Stability entry in series [2] is on record as “unchanged”.

For the molecule `CC[C@@H](O)CC(=O)[O-].[Na+]` [Sodium R-3-hydroxypentanoate, sodium R-3-hydroxypentanoate], the “moisture content (%)” value in series [1] (30 min) turned out to be 0.87%; in series [1] (1 h), 1.68%; in series [1] (2 h), 2.83%; in series [1] (4 h), 4.36%; in series [1] (6 h), 6.13%; in series [1] (7 h), 6.70%. Also, the “moisture content (%)” value amounted to 10.57% in series [1] (11 h) and 20.57% in series [1] (22 h). Moreover, the Stability entry in series [2] is reported as “unchanged”.

Turning to `CC[C@H](O)CC(=O)[O-].[Na+]` [Sodium S-3-hydroxypentanoate, sodium S-3-hydroxypentanoate], the “moisture content (%)” value stood at 0.91% in series [1] (30 min); 1.73% in series [1] (1 h); 2.91% in series [1] (2 h); 4.43% in series [1] (4 h); 6.22% in series [1] (6 h); 6.79% in series [1] (7 h). Further, the “moisture content (%)” value is 10.61% in series [1] (11 h) and 20.44% in series [1] (22 h). Also, in series [2], the Stability result was “unchanged”.

As to calcium 3-hydroxybutyrate, the “moisture content (%)” value in series [1] (30 min) was found to be 0.97%; in series [1] (1 h), 1.81%; in series [1] (2 h), 2.34%; in series [1] (4 h) it was 4.12%; in series [1] (6 h), 5.22%; in series [1] (7 h) it was 6.01%. Besides, the “moisture content (%)” value in series [1] (11 h) is on record as 10.24%; in series [1] (22 h) it was 17.72%. Moreover, the Stability entry in series [2] (30° C.) is recorded as “unchanged”; in series [2] (40° C.), “unchanged”; in series [2] (60° C.), “melted”; in series [2] (70° C.), “melted”; in series [2] (80° C.), “melted”.

For the molecule calcium R-3-hydroxybutyrate, the “moisture content (%)” value is 0.92% in series [1] (30 min); 1.82% in series [1] (1 h); 2.43% in series [1] (2 h); 4.22% in series [1] (4 h); 5.35% in series [1] (6 h); 6.04% in series [1] (7 h). The “moisture content (%)” value in series [1] (11 h) amounted to 10.44%; in series [1] (22 h), 17.68%. Further, the Stability entry in series [2] (30° C.) is given as “unchanged”; in series [2] (40° C.) it was “unchanged”; in series [2] (60° C.) it was “melted”; in series [2] (70° C.), “melted”; in series [2] (80° C.) it was “melted”.

Take magnesium 3-hydroxybutyrate: the “moisture content (%)” value amounted to 0.81% in series [1] (30 min); 1.25% in series [1] (1 h); 2.23% in series [1] (2 h); 4.12% in series [1] (4 h); 6.43% in series [1] (6 h); 8.14% in series [1] (7 h). The figures for the “moisture content (%)” value in series [1] (11 h) and in series [1] (22 h) were 12.42% and 18.66%, respectively. Besides, the Stability result in series [2] (30° C.) is given as “unchanged”; in series [2] (40° C.), “unchanged”; in series [2] (60° C.), “Melted”; in series [2] (70° C.), “melted”; in series [2] (80° C.) it was “melted”.

For magnesium R-3-hydroxybutyrate, the “moisture content (%)” value is given as 0.82% in series [1] (30 min); 1.22% in series [1] (1 h); 2.13% in series [1] (2 h); 4.22% in series [1] (4 h); 6.35% in series [1] (6 h); 8.04% in series [1] (7 h). For the same molecule, the “moisture content (%)” value in series [1] (11 h) was found to be 12.44%; in series [1] (22 h), 18.68%. Further, the Stability result is “unchanged” in series [2] (30° C.); “unchanged” in series [2] (40° C.); “melted” in series [2] (60° C.); “melted” in series [2] (70° C.); “melted” in series [2] (80° C.).
